# Values joined by “and” are separate entries in the source; they are usually repeats but may differ in a detail not shown here. Equal entries are not always repeated.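 Assay format: 96-well plates, 48-hour exposure. Here, GI50 denotes the concentration required for 50% inhibition of growth. At the TGI there is no net growth.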
# Tests used:
# Test in all cases: growth of human tumour cells (NCI), 48 h
# LOX IMVI melanoma = system: LOX IMVI melanoma
# HCT-15 colon = system: HCT-15 colon
# HS 578T breast = system: HS 578T breast
# SK-MEL-5 melanoma = system: SK-MEL-5 melanoma
# K-562 leukemia = system: K-562 leukemia
# MOLT-4 leukemia = system: MOLT-4 leukemia
# OVCAR-8 ovarian = system: OVCAR-8 ovarian
# OVCAR-5 ovarian = system: OVCAR-5 ovarian
# HOP-62 NSCLC = system: HOP-62 NSCLC
# CAKI-1 renal = system: CAKI-1 renal
# SN12C renal = system: SN12C renal
# KM12 colon = system: KM12 colon
# A498 renal = system: A498 renal
# RPMI-8226 leukemia = system: RPMI-8226 leukemia
# HT29 colon = system: HT29 colon
# SF-295 CNS = system: SF-295 CNS
# NCI-H460 lung = system: NCI-H460 lung
# SNB-19 CNS = system: SNB-19 CNS
# NCI-H23 lung = system: NCI-H23 lung
# SF-539 CNS = system: SF-539 CNS
# BT-549 breast = system: BT-549 breast
# U251 CNS = system: U251 CNS
# IGROV1 ovarian = system: IGROV1 ovarian
# SK-MEL-28 melanoma = system: SK-MEL-28 melanoma
# UACC-257 melanoma = system: UACC-257 melanoma
# CCRF-CEM leukemia = system: CCRF-CEM leukemia
# MDA-MB-435 = system: MDA-MB-435
# EKVX NSCLC = system: EKVX NSCLC
# UACC-62 melanoma = system: UACC-62 melanoma
# T-47D breast = system: T-47D breast
# M14 melanoma = system: M14 melanoma
# SNB-75 CNS = system: SNB-75 CNS
# MDA-MB-231 breast = system: MDA-MB-231 breast
# TK-10 renal = system: TK-10 renal
# SK-MEL-2 melanoma = system: SK-MEL-2 melanoma
# ACHN renal = system: ACHN renal
# SF-268 CNS = system: SF-268 CNS
# HL-60(TB) leukemia = system: HL-60(TB) leukemia
# SK-OV-3 ovarian = system: SK-OV-3 ovarian
# MDA-N = system: MDA-N
# RXF 393 renal = system: RXF 393 renal
# OVCAR-4 ovarian = system: OVCAR-4 ovarian
# A549 NSCLC = system: A549 NSCLC
# HOP-92 NSCLC = system: HOP-92 NSCLC
# 786-0 renal = system: 786-0 renal
# SW-620 colon = system: SW-620 colon
# HCC-2998 colon = system: HCC-2998 colon
# MCF7 breast = system: MCF7 breast
# PC-3 prostate = system: PC-3 prostate
# NCI-H226 lung = system: NCI-H226 lung
# COLO 205 colon = system: COLO 205 colon
# MALME-3M melanoma = system: MALME-3M melanoma
# UO-31 renal = system: UO-31 renal
# OVCAR-3 ovarian = system: OVCAR-3 ovarian
# NCI/ADR-RES ovarian = system: NCI/ADR-RES ovarian
# DU-145 prostate = system: DU-145 prostate
# NCI-H522 lung = system: NCI-H522 lung
# HCT-116 colon = system: HCT-116 colon
# SR leukemia = system: SR leukemia
structure (smiles),measurement,setting,value
CC(C)NCCCNc1c2ccccc2nc2cccc([N+](=O)[O-])c12,GI50,LOX IMVI melanoma,0.0153 µM
same,TGI,LOX IMVI melanoma,0.0256 µM and 0.116 µM
same,TGI,HCT-15 colon,> 100 µM
same,GI50,HS 578T breast,0.0218 µM
same,TGI,HS 578T breast,0.29 µM and 0.113 µM
same,TGI,SK-MEL-5 melanoma,0.0163 µM
same,TGI,K-562 leukemia,0.0169 µM and 0.0104 µM
same,TGI,MOLT-4 leukemia,0.0254 µM and 0.0169 µM
same,TGI,OVCAR-8 ovarian,0.0555 µM
same,TGI,OVCAR-5 ovarian,0.145 µM and 0.0183 µM
same,TGI,HOP-62 NSCLC,0.0809 µM and 0.0244 µM
same,TGI,CAKI-1 renal,0.239 µM
same,TGI,SN12C renal,0.15 µM
same,TGI,KM12 colon,0.0409 µM and 0.0284 µM
same,GI50,A498 renal,0.0123 µM
same,TGI,A498 renal,0.0328 µM and 0.0432 µM
same,TGI,RPMI-8226 leukemia,0.00796 µM and 0.0262 µM
same,TGI,HT29 colon,0.0216 µM
same,TGI,SF-295 CNS,0.0451 µM and 0.173 µM
same,TGI,NCI-H460 lung,0.103 µM
same,GI50,SNB-19 CNS,0.0112 µM
same,TGI,NCI-H23 lung,0.00908 µM
same,GI50,SF-539 CNS,0.0142 µM
same,TGI,SF-539 CNS,0.228 µM and 0.0409 µM
same,GI50,BT-549 breast,0.0222 µM
same,TGI,BT-549 breast,0.157 µM and 0.0599 µM
same,TGI,U251 CNS,0.119 µM and 0.0496 µM
same,TGI,IGROV1 ovarian,0.0352 µM and 0.134 µM
same,GI50,SK-MEL-28 melanoma,0.0244 µM
same,TGI,SK-MEL-28 melanoma,0.289 µM and 0.0748 µM
same,GI50,UACC-257 melanoma,0.0194 µM
same,TGI,UACC-257 melanoma,0.17 µM and 0.0458 µM
same,GI50,CCRF-CEM leukemia,0.0118 µM
same,TGI,CCRF-CEM leukemia,0.0854 µM and 0.0644 µM
same,TGI,MDA-MB-435,0.0225 µM and 0.0186 µM
same,GI50,EKVX NSCLC,0.0372 µM
same,TGI,EKVX NSCLC,0.0791 µM and 0.268 µM
same,TGI,UACC-62 melanoma,0.0374 µM and 0.031 µM
same,TGI,T-47D breast,0.0582 µM and 0.0968 µM
same,TGI,M14 melanoma,0.0244 µM
same,GI50,SNB-75 CNS,0.0161 µM
same,TGI,SNB-75 CNS,0.0974 µM and 0.0452 µM
same,GI50,MDA-MB-231 breast,0.0107 µM
same,TGI,MDA-MB-231 breast,0.047 µM and 0.114 µM
same,TGI,TK-10 renal,0.463 µM and 0.0708 µM
same,TGI,SK-MEL-2 melanoma,0.0299 µM
same,TGI,ACHN renal,0.057 µM and 0.106 µM
same,GI50,SF-268 CNS,0.0167 µM
same,TGI,SF-268 CNS,0.0323 µM and 0.182 µM
same,GI50,HL-60(TB) leukemia,0.0102 µM
same,TGI,SK-OV-3 ovarian,0.394 µM and 0.273 µM
same,TGI,MDA-N,0.0292 µM
same,TGI,RXF 393 renal,0.0183 µM
same,TGI,OVCAR-4 ovarian,0.0236 µM
same,TGI,A549 NSCLC,0.15 µM and 0.0585 µM
same,TGI,HOP-92 NSCLC,0.0397 µM
same,GI50,786-0 renal,0.0108 µM
same,TGI,786-0 renal,0.0325 µM and 0.0704 µM
same,TGI,SW-620 colon,0.209 µM and 0.237 µM
same,TGI,HCC-2998 colon,0.0165 µM
same,TGI,MCF7 breast,0.043 µM
same,TGI,PC-3 prostate,0.038 µM
same,TGI,NCI-H226 lung,0.0903 µM
same,TGI,COLO 205 colon,0.013 µM and 0.0168 µM
same,GI50,MALME-3M melanoma,0.012 µM
same,TGI,MALME-3M melanoma,0.0272 µM and 0.0471 µM
same,GI50,UO-31 renal,0.0306 µM
same,TGI,UO-31 renal,0.451 µM and 0.148 µM
same,TGI,OVCAR-3 ovarian,0.037 µM
same,GI50,NCI/ADR-RES ovarian,1.86 µM
same,TGI,NCI/ADR-RES ovarian,4.65 µM and 24.4 µM
COc1ccccc1CNCCCCCNCCCCCCCCCCNCCCCCNCc1ccccc1OC,TGI,LOX IMVI melanoma,30.3 µM
same,TGI,DU-145 prostate,33.5 µM
same,TGI,HCT-15 colon,> 100 µM
same,TGI,HS 578T breast,5.78 µM
same,TGI,SK-MEL-5 melanoma,> 100 µM
same,TGI,K-562 leukemia,31.7 µM
same,TGI,MOLT-4 leukemia,26.5 µM
same,TGI,OVCAR-8 ovarian,77.7 µM
same,TGI,HOP-62 NSCLC,31.8 µM
same,TGI,SN12C renal,79.6 µM
same,TGI,KM12 colon,58.4 µM
same,TGI,RPMI-8226 leukemia,> 100 µM
same,TGI,NCI-H522 lung,42.2 µM
same,TGI,HT29 colon,> 100 µM
same,TGI,SF-295 CNS,> 100 µM
same,TGI,NCI-H460 lung,26.8 µM
same,TGI,SNB-19 CNS,> 100 µM
same,TGI,NCI-H23 lung,> 100 µM
same,TGI,SF-539 CNS,21.2 µM
same,TGI,BT-549 breast,45.5 µM
same,TGI,U251 CNS,32.9 µM
same,TGI,IGROV1 ovarian,45 µM
same,TGI,SK-MEL-28 melanoma,> 100 µM
same,TGI,CCRF-CEM leukemia,32.4 µM
same,TGI,MDA-MB-435,> 100 µM
same,TGI,UACC-62 melanoma,> 100 µM
same,TGI,T-47D breast,> 100 µM
same,TGI,HCT-116 colon,24.1 µM
same,TGI,M14 melanoma,> 100 µM
same,TGI,SNB-75 CNS,70.3 µM
same,TGI,MDA-MB-231 breast,31.6 µM
same,TGI,TK-10 renal,> 100 µM
same,TGI,SK-MEL-2 melanoma,34.7 µM
same,TGI,ACHN renal,> 100 µM
same,TGI,SR leukemia,32.2 µM
same,TGI,SF-268 CNS,> 100 µM
same,TGI,HL-60(TB) leukemia,43.7 µM
same,TGI,MDA-N,34.5 µM
same,TGI,RXF 393 renal,96.3 µM
same,TGI,OVCAR-4 ovarian,> 100 µM
same,TGI,A549 NSCLC,58.8 µM
same,TGI,HOP-92 NSCLC,> 100 µM
same,TGI,786-0 renal,42.1 µM
same,TGI,SW-620 colon,> 100 µM
same,TGI,HCC-2998 colon,39.2 µM
same,TGI,MCF7 breast,32.7 µM
same,TGI,NCI-H226 lung,34.3 µM
same,TGI,COLO 205 colon,> 100 µM
same,TGI,MALME-3M melanoma,61.3 µM
same,TGI,UO-31 renal,> 100 µM
same,TGI,OVCAR-3 ovarian,> 100 µM

# From PubChem BioAssay (NCI)
